Patent US8497376B2, “Inhibitors of c-fms kinase” (Janssen Pharmaceutica N.V., priority 2007, dated 2013)

Key:
in vivo = details: Lewis, rat, po
Procedure: (§1) Chronic, T-cell dependent, erosive arthritis was severe by day 20 at which time twice daily oral dosing was commenced until sacrificed on day 32 to determine if the compound of Example 15 (hereinafter, Compound A) can reverse established disease.
(§2) Compound A was formulated in 5% solutol, 5% ethanol, 90% water. The dose volume was 5 ml/kg.
Exposure: Two hours following the last dose of 3, 10 and 20 mpk, plasma levels of Compound A were 247±22, 802±35, and 1475±70 ng/ml, respectively (mean±SEM).

[1] = test system: mouse bone-marrow derived macrophages; experiment: CSF-1-driven mouse bone-marrow derived macrophages assay (BrDU incorporation); type: cell-based; details: Mus musculus, BMDM, CSF-1-driven proliferation, 30 hrs culture
Procedure: Macrophages were derived by culturing mouse bone marrow in alpha-MEM supplemented with 10% FCS and 50 ng/ml recombinant mouse CSF-1 in bacteriologic dishes. On the sixth day, macrophages were detached from dishes, washed, and resuspended to 0.05 million cells/ml in alpha-MEM containing 10% FCS. One hundred ul of cell suspension were distributed per well into 96 well culture plates. Wells were further supplemented with the addition of 50 ul media containing 15 ng/ml CSF-1, 3 uM Indomethacin, and 3× of a dilution series of test compounds. The cells were cultured for 30 hrs at 37 degrees and 5% CO2. During the final six hours, cultures were supplemented with an additional 30 ul of media containing a 1:500 dilution of bromodeoxyuridine (BrDU). At the end of the culture period, the plates were spun at 1000 RPM for 1 minute and 130 ul of media was removed with a pipet and replaced with 150 ul of fixative solution for 1 hour@room temperature. The fixative was then dispelled from the plates and the plates allowed to air dry. Incorporation of BrDU into the fixed, dried cells was quantified using a specific ELISA.

[2] = test system: streptococcal cell wall (SCW) model of arthritis in rats; experiment: SCW arthritis in rats (chronic phase, therapeutic dosing); type: in vivo, rat; details: for Number of steps taken using hind limbs in a thirty second observation period: average of three rats
Description: Purpose: A polyarthritis occurs in female Lewis rats following i.p. administration of streptococcal cell wall (SCW) components. The model has an acute non-erosive phase (days 3-7) that is complement and neutrophil dependent and which resolves. A chronic erosive phase begins at about day ten and is dependent on the development of specific T cell immunity to SCW, and possibly to self-antigens. The SCW-induced model has been used less frequently for pharmaceutical testing than the adjuvant-induced or collagen-induced models of arthritis, but each model predicts accurately the anti-inflammatory potential of TNF-inhibitors. The chronic phase of the SCW model is macrophage dependent.
Method: Female Lewis rats (80-100 gm each) were purchased from Charles River. Streptococcal cell wall peptidoglycan-polysaccharide polymers (PG-PS 10S) were purchased from BD (Cat#210866). PG-PS 10S was vortexed for 30 seconds to thoroughly mix the material and sonicated at low energy levels (level 6) for 3 min with a probe type sonicator prior to injection. On day 0, sixty rats were anesthetized using isoflurane, and injected i.p. with 15 μg of rhamnose/gram body weight (BW) in the lower left quadrant of the abdomen. Ten rats were treated in a similar manner with sterile saline.
as §1, §2
Left and right hind ankles of each rat were measured with calipers every day for the first six days (post-injection) and then at least every two or three days for the remainder of the study. Ankles were assigned a clinical score based on erythema and swelling as follows: 1=ankle only; 2=ankle and proximal half of tarsal joint; 3=ankle and entire tarsal joint; 4=involvement of the entire paw including digits. Animal scores represented the sum of the two hind paws.
Disease reversal was accompanied by restoration of function. To assess function, three representative rats per group were videotaped for thirty seconds on days 19 and 32, and steps taken with hind limbs were counted and reported in Table 3. On day 19 following SCW, rats ambulated primarily using front paws. Hind paws were nearly immobilized.

c-fms = c-fms (Homo sapiens (Human), UniProt P07333); experiment: Autophosphorylation fluorescence polarization competition immunoassay for c-fms inhibition; type: biochemical; details: 10 nM c-fms, 1 mM ATP; average of three independent measurements
Procedure: The assay buffer used was 100 mM 4-(2-hydroxyethyl)piperazine1-ethanesulfonic acid (HEPES), pH 7.5, 1 mM 1,4-dithio-DL-threitol (DTT), 0.01% (v/v) Tween-20. Compounds were diluted in assay buffer containing 4% dimethylsulfoxide (DMSO) just prior to the assay. […] The kinase reaction was initiated by adding 2 μL of 5 mM ATP (Sigma) in assay buffer. The final concentrations in the assay were 10 nM c-fms, 1 mM ATP, 5 mM MgCl2, 2% DMSO. Control reactions were ran in each plate: in positive and negative control wells, assay buffer (made 4% in DMSO) was substituted for the compound; in addition, positive control wells received 1.2 μL of 50 mM ethylenediaminetetraaceticacid (EDTA). The plates were incubated at room temperature for 45 min. At the end of the incubation, the reaction was quenched with 1.2 μL of 50 mM EDTA (EDTA was not added to the positive control wells at this point; see above). Following a 5-min incubation, each well received 10 μL of a 1:1:3 mixture of anti-phosphotyrosine antibody, 10×, PTK green tracer, 10× (vortexed), FP dilution buffer, respectively (all from PanVera, cat. # P2837). The plate was covered, incubated for 30 min at room temperature and the fluorescence polarization was read on the Analyst. The instrument settings were: 485 nm excitation filter; 530 nm emission filter; Z height: middle of well; G factor: 0.93. […] The reported IC50 values are averages of three independent measurements.

c-fms, sequence (P07333 20-972): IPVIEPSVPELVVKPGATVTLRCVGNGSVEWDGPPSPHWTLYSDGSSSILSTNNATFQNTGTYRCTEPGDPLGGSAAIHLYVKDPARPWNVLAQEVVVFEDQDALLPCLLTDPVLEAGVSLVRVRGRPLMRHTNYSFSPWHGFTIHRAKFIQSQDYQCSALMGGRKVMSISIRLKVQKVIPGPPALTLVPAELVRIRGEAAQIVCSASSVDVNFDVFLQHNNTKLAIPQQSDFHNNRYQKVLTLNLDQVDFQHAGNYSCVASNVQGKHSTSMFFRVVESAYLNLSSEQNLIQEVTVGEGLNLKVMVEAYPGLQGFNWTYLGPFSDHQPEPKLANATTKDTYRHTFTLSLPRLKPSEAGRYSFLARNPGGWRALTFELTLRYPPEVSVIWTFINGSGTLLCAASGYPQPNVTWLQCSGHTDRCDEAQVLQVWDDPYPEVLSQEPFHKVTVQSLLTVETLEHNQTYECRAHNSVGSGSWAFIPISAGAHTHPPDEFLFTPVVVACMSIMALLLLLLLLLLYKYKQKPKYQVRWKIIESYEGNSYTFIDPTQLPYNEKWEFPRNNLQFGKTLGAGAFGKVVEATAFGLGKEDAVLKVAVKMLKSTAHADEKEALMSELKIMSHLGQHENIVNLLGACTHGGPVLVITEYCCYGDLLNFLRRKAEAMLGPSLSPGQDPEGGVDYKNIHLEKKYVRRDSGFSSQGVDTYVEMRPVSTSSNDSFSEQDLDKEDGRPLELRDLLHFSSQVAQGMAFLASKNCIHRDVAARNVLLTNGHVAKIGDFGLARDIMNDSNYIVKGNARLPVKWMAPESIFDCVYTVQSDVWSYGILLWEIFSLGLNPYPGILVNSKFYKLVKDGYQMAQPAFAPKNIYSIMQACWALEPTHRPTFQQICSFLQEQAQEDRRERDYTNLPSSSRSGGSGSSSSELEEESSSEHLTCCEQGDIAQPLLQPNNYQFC

Row | concentration at 2 h (in vivo; 3 mg/kg) [ng/mL] | concentration at 2 h (in vivo; 10 mg/kg) [ng/mL] | concentration at 2 h (in vivo; 20 mg/kg) [ng/mL] | IC50 (c-fms) [nM] | Structure (SMILES) | IC50 [1] [nM] | Number of steps taken using hind limbs in a thirty second observation period ([2]; Day 19 (before treatment), 3 mg/kg group) | Number of steps taken using hind limbs in a thirty second observation period ([2]; Day 19 (before treatment), 10 mg/kg group) | Number of steps taken using hind limbs in a thirty second observation period ([2]; Day 19 (before treatment), 20 mg/kg group) | Number of steps taken using hind limbs in a thirty second observation period ([2]; Day 32, 3 mg/kg oral b.i.d.) | Number of steps taken using hind limbs in a thirty second observation period ([2]; Day 32, 10 mg/kg oral b.i.d.) | Number of steps taken using hind limbs in a thirty second observation period ([2]; Day 32, 20 mg/kg oral b.i.d.) | use of hind limbs (function) ([2]; day 32, rats treated with Compound A) | paw swelling (caliper measurements of paw thickness and visual scores) ([2]; dosing p.o. b.i.d. initiated on day 20 after disease was severe, 3, 10, 20 mpk)
1 | 247 ± 22 | 802 ± 35 | 1480 ± 70 | – | CC1(C)CC=C(c2nc(C3CC(C)(C)OC(C)(C)C3)ccc2NC(=O)c2nc(C#N)c[nH]2)CC1 [Example 15, 4-Cyano-1H-imidazole-2-carboxylic acid[2-(4,4-dimethyl-cyclohex-1-enyl)-6-(2,2,6,6-tetramethyl-tetrahydro-pyran-4-yl)-pyridin-3-yl]-amide] | 6.1 | 1.7 | 1.3 | 1.3 | 7.7 | 7.3 | 6 | used hind limbs in a normal fashion | caused a reversal of paw swelling
2 | – | – | – | 1.8 | CC1(C)CC=C(c2cc([C@@]3(O)C[C@@]4(C)O[C@@](C)(C3)[C@@H]3OC(C)(C)O[C@@H]34)ccc2NC(=O)c2nc(C#N)c[nH]2)CC1 [Example 11, 4-Cyano-1H-imidazole-2-carboxylic acid[2-(4,4-dimethyl-cyclohex-1-enyl)-4-[(3-exo)-3-hydroxy-1,5-dimethyl-6-exo,7-exo-(dimethylmethylenedioxy)-bicyclo[3.2.1]oct-3-yl]-phenyl]-amide] | 2.5 | – | – | – | – | – | – | – | –
